Read-outs that look alike come from different tables or passages of the source.
Tested on: PABPC1 PABC
Assay type: binding, human
Conditions: DMS-BM library, bait PABPC1 PABC, row aa = residue at this position; for DMS-derived PSSM value, position N12 / DMS-derived PSSM value, position N10 / DMS-derived PSSM value, position N7 / DMS-derived PSSM value (averaged), position N3 / DMS-derived PSSM value, position N5 / DMS-derived PSSM value, position N3 / DMS-derived PSSM value (averaged), position N10 / DMS-derived PSSM value (averaged), position N5: N = wild type; for DMS-derived PSSM value (averaged), position S13 / DMS-derived PSSM value, position S13 / DMS-derived PSSM value, position S15: S = wild type; for DMS-derived PSSM value (averaged), position L2: L = wild type
[1] = prey ATXN2, peptide KSTLNPNAKEFNPRSF
[2] = prey ATXN2, peptide KSTLNPNAKEFNPRSF, P = wild type
[3] = prey ATXN2, TLNPNAKEFNPRSF(averaged) over the two overlapping peptides
[4] = prey ATXN2, peptide TLNPNAKEFNPRSFSQ, P = wild type
[5] = prey ATXN2, TLNPNAKEFNPRSF(averaged) over the two overlapping peptides, F = wild type
[6] = prey ATXN2, peptide TLNPNAKEFNPRSFSQ, K = wild type
[7] = prey ATXN2, peptide TLNPNAKEFNPRSFSQ
[8] = prey ATXN2, TLNPNAKEFNPRSF(averaged) over the two overlapping peptides, P = wild type
[9] = prey ATXN2, TLNPNAKEFNPRSF(averaged) over the two overlapping peptides, K = wild type
[10] = prey ATXN2, peptide KSTLNPNAKEFNPRSF, F = wild type
[11] = prey ATXN2, TLNPNAKEFNPRSF(averaged) over the two overlapping peptides, A = wild type
[12] = prey ATXN2, peptide TLNPNAKEFNPRSFSQ, T = wild type

KSTLNPNAKEFNPRSF N12H (KSTLNPNAKEFHPRSF)
DMS-derived PSSM value, position N12 [1]: 0.04066

KSTLNPNAKEFNPRSF P13W (KSTLNPNAKEFNWRSF)
DMS-derived PSSM value, position P13 [2]: 0.01574

TLNPNAKEFNPRSF(averaged) S13P (TLNPNAKEFNPRPF)
DMS-derived PSSM value (averaged), position S13 [3]: 0.06349

TLNPNAKEFNPRSFSQ P11Y (TLNPNAKEFNYRSFSQ)
DMS-derived PSSM value, position P11 [4]: 0.04593

KSTLNPNAKEFNPRSF P13Q (KSTLNPNAKEFNQRSF)
DMS-derived PSSM value, position P13 [2]: 0.08339

TLNPNAKEFNPRSF(averaged) F9L (TLNPNAKELNPRSF)
DMS-derived PSSM value (averaged), position F9 [5]: 0

KSTLNPNAKEFNPRSF N12T (KSTLNPNAKEFTPRSF)
DMS-derived PSSM value, position N12 [1]: 0.02601

TLNPNAKEFNPRSFSQ K7G (TLNPNAGEFNPRSFSQ)
DMS-derived PSSM value, position K7 [6]: 0.01102

TLNPNAKEFNPRSFSQ N10A (TLNPNAKEFAPRSFSQ)
DMS-derived PSSM value, position N10 [7]: 0.03895

KSTLNPNAKEFNPRSF K9V (KSTLNPNAVEFNPRSF)
DMS-derived PSSM value, position K9 (prey ATXN2, peptide KSTLNPNAKEFNPRSF, K = wild type): 0.0001287

KSTLNPNAKEFNPRSF N7M (KSTLNPMAKEFNPRSF)
DMS-derived PSSM value, position N7 [1]: 0.02788

TLNPNAKEFNPRSF(averaged) P11M (TLNPNAKEFNMRSF)
DMS-derived PSSM value (averaged), position P11 [8]: 0.00553

TLNPNAKEFNPRSFSQ S13G (TLNPNAKEFNPRGFSQ)
DMS-derived PSSM value, position S13 [7]: 0.1675

KSTLNPNAKEFNPRSF E10Y (KSTLNPNAKYFNPRSF)
DMS-derived PSSM value, position E10 (prey ATXN2, peptide KSTLNPNAKEFNPRSF, E = wild type): 0

TLNPNAKEFNPRSF(averaged) N3T (TLTPNAKEFNPRSF)
DMS-derived PSSM value (averaged), position N3 [3]: 0.009966

TLNPNAKEFNPRSF(averaged) K7F (TLNPNAFEFNPRSF)
DMS-derived PSSM value (averaged), position K7 [9]: 0.04105

TLNPNAKEFNPRSFSQ P11G (TLNPNAKEFNGRSFSQ)
DMS-derived PSSM value, position P11 [4]: 0.04287

KSTLNPNAKEFNPRSF N12E (KSTLNPNAKEFEPRSF)
DMS-derived PSSM value, position N12 [1]: 0.06073

KSTLNPNAKEFNPRSF S15W (KSTLNPNAKEFNPRWF)
DMS-derived PSSM value, position S15 [1]: 0.009844

TLNPNAKEFNPRSFSQ N5R (TLNPRAKEFNPRSFSQ)
DMS-derived PSSM value, position N5 [7]: 0.004201

TLNPNAKEFNPRSF(averaged) L2T (TTNPNAKEFNPRSF)
DMS-derived PSSM value (averaged), position L2 [3]: 0

TLNPNAKEFNPRSF(averaged) P11G (TLNPNAKEFNGRSF)
DMS-derived PSSM value (averaged), position P11 [8]: 0.05139

TLNPNAKEFNPRSF(averaged) S13R (TLNPNAKEFNPRRF)
DMS-derived PSSM value (averaged), position S13 [3]: 0.00496

TLNPNAKEFNPRSF(averaged) P4L (TLNLNAKEFNPRSF)
DMS-derived PSSM value (averaged), position P4 [8]: 0.1003

TLNPNAKEFNPRSFSQ N3H (TLHPNAKEFNPRSFSQ)
DMS-derived PSSM value, position N3 [7]: 0

TLNPNAKEFNPRSF(averaged) N3Y (TLYPNAKEFNPRSF)
DMS-derived PSSM value (averaged), position N3 [3]: 0.00806

KSTLNPNAKEFNPRSF F11Y (KSTLNPNAKEYNPRSF)
DMS-derived PSSM value, position F11 [10]: 0.3016

TLNPNAKEFNPRSF(averaged) N10E (TLNPNAKEFEPRSF)
DMS-derived PSSM value (averaged), position N10 [3]: 0.03135

KSTLNPNAKEFNPRSF N5H (KSTLHPNAKEFNPRSF)
DMS-derived PSSM value, position N5 [1]: 0

TLNPNAKEFNPRSFSQ S13A (TLNPNAKEFNPRAFSQ)
DMS-derived PSSM value, position S13 [7]: 0.2244

KSTLNPNAKEFNPRSF F16Y (KSTLNPNAKEFNPRSY)
DMS-derived PSSM value, position F16 [10]: 0.101

TLNPNAKEFNPRSFSQ K7E (TLNPNAEEFNPRSFSQ)
DMS-derived PSSM value, position K7 [6]: 0.001823

KSTLNPNAKEFNPRSF N7E (KSTLNPEAKEFNPRSF)
DMS-derived PSSM value, position N7 [1]: 0.03193

TLNPNAKEFNPRSFSQ P11M (TLNPNAKEFNMRSFSQ)
DMS-derived PSSM value, position P11 [4]: 0.01106

TLNPNAKEFNPRSF(averaged) K7G (TLNPNAGEFNPRSF)
DMS-derived PSSM value (averaged), position K7 [9]: 0.008693

TLNPNAKEFNPRSF(averaged) P4M (TLNMNAKEFNPRSF)
DMS-derived PSSM value (averaged), position P4 [8]: 0.0005819

TLNPNAKEFNPRSF(averaged) N5A (TLNPAAKEFNPRSF)
DMS-derived PSSM value (averaged), position N5 [3]: 0.00733

TLNPNAKEFNPRSFSQ P4M (TLNMNAKEFNPRSFSQ)
DMS-derived PSSM value, position P4 [4]: 0.001164

TLNPNAKEFNPRSF(averaged) L2W (TWNPNAKEFNPRSF)
DMS-derived PSSM value (averaged), position L2 [3]: 0.07274

TLNPNAKEFNPRSFSQ R12G (TLNPNAKEFNPGSFSQ)
DMS-derived PSSM value, position R12 (prey ATXN2, peptide TLNPNAKEFNPRSFSQ, R = wild type): 0.02158

TLNPNAKEFNPRSFSQ S13F (TLNPNAKEFNPRFFSQ)
DMS-derived PSSM value, position S13 [7]: 0.004247

TLNPNAKEFNPRSF(averaged) N5E (TLNPEAKEFNPRSF)
DMS-derived PSSM value (averaged), position N5 [3]: 0.01598

TLNPNAKEFNPRSFSQ N3M (TLMPNAKEFNPRSFSQ)
DMS-derived PSSM value, position N3 [7]: 0

TLNPNAKEFNPRSF
DMS-derived PSSM value (averaged), position A6 [11]: 0.4881
DMS-derived PSSM value (averaged), position E8 (prey ATXN2, TLNPNAKEFNPRSF(averaged) over the two overlapping peptides, E = wild type): 0.1343
DMS-derived PSSM value (averaged), position F9 [5]: 0.3018
DMS-derived PSSM value (averaged), position F14 [5]: 0.06062
DMS-derived PSSM value (averaged), position K7 [9]: 0.01034
DMS-derived PSSM value (averaged), position L2 [3]: 0.5343
DMS-derived PSSM value (averaged), position N3 [3]: 0.5964
DMS-derived PSSM value (averaged), position N5 [3]: 0.0195
DMS-derived PSSM value (averaged), position N10 [3]: 0.05544
DMS-derived PSSM value (averaged), position P4 [8]: 0.1195
DMS-derived PSSM value (averaged), position P11 [8]: 0.04091
DMS-derived PSSM value (averaged), position R12 (prey ATXN2, TLNPNAKEFNPRSF(averaged) over the two overlapping peptides, R = wild type): 0.02883
DMS-derived PSSM value (averaged), position S13 [3]: 0.05759
DMS-derived PSSM value (averaged), position T1 (prey ATXN2, TLNPNAKEFNPRSF(averaged) over the two overlapping peptides, T = wild type): 0.0418

KSTLNPNAKEFNPRSF F16A (KSTLNPNAKEFNPRSA)
DMS-derived PSSM value, position F16 [10]: 0.08044

TLNPNAKEFNPRSF(averaged) P4S (TLNSNAKEFNPRSF)
DMS-derived PSSM value (averaged), position P4 [8]: 0.01466

TLNPNAKEFNPRSF(averaged) P4R (TLNRNAKEFNPRSF)
DMS-derived PSSM value (averaged), position P4 [8]: 0

TLNPNAKEFNPRSFSQ N10M (TLNPNAKEFMPRSFSQ)
DMS-derived PSSM value, position N10 [7]: 0.1

TLNPNAKEFNPRSF(averaged) P11I (TLNPNAKEFNIRSF)
DMS-derived PSSM value (averaged), position P11 [8]: 0.006686

TLNPNAKEFNPRSF(averaged) L2G (TGNPNAKEFNPRSF)
DMS-derived PSSM value (averaged), position L2 [3]: 0

TLNPNAKEFNPRSF(averaged) N3Q (TLQPNAKEFNPRSF)
DMS-derived PSSM value (averaged), position N3 [3]: 0.0275

TLNPNAKEFNPRSFSQ T1N (NLNPNAKEFNPRSFSQ)
DMS-derived PSSM value, position T1 [12]: 0.02571

TLNPNAKEFNPRSF(averaged) K7I (TLNPNAIEFNPRSF)
DMS-derived PSSM value (averaged), position K7 [9]: 0.2038

TLNPNAKEFNPRSF(averaged) F9A (TLNPNAKEANPRSF)
DMS-derived PSSM value (averaged), position F9 [5]: 0

TLNPNAKEFNPRSF(averaged) F14V (TLNPNAKEFNPRSV)
DMS-derived PSSM value (averaged), position F14 [5]: 0.12

TLNPNAKEFNPRSFSQ T1A (ALNPNAKEFNPRSFSQ)
DMS-derived PSSM value, position T1 [12]: 0.03403

TLNPNAKEFNPRSFSQ S13R (TLNPNAKEFNPRRFSQ)
DMS-derived PSSM value, position S13 [7]: 0.001962

TLNPNAKEFNPRSFSQ A6F (TLNPNFKEFNPRSFSQ)
DMS-derived PSSM value, position A6 (prey ATXN2, peptide TLNPNAKEFNPRSFSQ, A = wild type): 0

TLNPNAKEFNPRSF(averaged) A6M (TLNPNMKEFNPRSF)
DMS-derived PSSM value (averaged), position A6 [11]: 0

KSTLNPNAKEFNPRSF T3K (KSKLNPNAKEFNPRSF)
DMS-derived PSSM value, position T3 (prey ATXN2, peptide KSTLNPNAKEFNPRSF, T = wild type): 0

TLNPNAKEFNPRSF(averaged) P4Y (TLNYNAKEFNPRSF)
DMS-derived PSSM value (averaged), position P4 [8]: 0

KSTLNPNAKEFNPRSF P13G (KSTLNPNAKEFNGRSF)
DMS-derived PSSM value, position P13 [2]: 0.05991

KSTLNPNAKEFNPRSF S15L (KSTLNPNAKEFNPRLF)
DMS-derived PSSM value, position S15 [1]: 0.4164

Reference: paper PMC12102759 (Protein Science : A Publication of the Protein Society, 2025)
